# Assay results from patent publication US20080194616A1, “PYRIDOPYRIMIDINONE COMPOUNDS USEFUL IN TREATING SODIUM CHANNEL-MEDIATED DISEASES OR CONDITIONS” (Xenon Pharmaceuticals Inc., priority 2007, published 2008).
# Assays:
# [1] = tested on: sodium channel; assay: Guanidine Influx Assay (In Vitro Assay); format: cell-based, human or rat; settings: known cell line that expresses a sodium channel; read-out: IC50 Activity Level
# Source text: This example describes an in vitro assay for testing and profiling test agents against human or rat sodium channels stably expressed in cells of either an endogenous or recombinant origin. The assay is also useful for determining the IC-50 of a sodium channel blocking compound. The assay is based on the guanidine flux assay described by Reddy, N. L., et al., J. Med. Chem. (1998), 41(17):3298-302.
# The guanidine influx assay is a radiotracer flux assay used to determine ion flux activity of sodium channels in a high-throughput microplate-based format. The assay uses ^14C-guanidine hydrochloride in combination with various known sodium channel modulators, to assay the potency of test agents. Potency is determined by an IC-50 calculation. Selectivity is determined by comparing potency of the compound for the channel of interest to its potency against other sodium channels (also called ‘selectivity profiling’).
# Each of the test agents is assayed against cells that express the channels of interest. Voltage gated sodium channels are either TTX sensitive or insensitive. This property is useful when evaluating the activities of a channel of interest when it resides in a mixed population with other sodium channels. The following Table 1 summarizes cell lines useful in screening for a certain channel activity in the presence or absence of TTX.
# Cells expressing the channel of interest are grown according to the supplier or in the case of a recombinant cell in the presence of selective growth media such as G418 (Gibco/Invitrogen). The cells are disassociated from the culture dishes with an enzymatic solution (1×) Trypsin/EDTA (Gibco/Invitrogen) and analyzed for density and viability using haemocytometer (Neubauer). Disassociated cells are washed and resuspended in their culture media then plated into Scintiplates (Beckman Coulter Inc.) (approximately 100,000 cells/well) and incubated at 37° C./5% CO2. for 20-24 hours. After an extensive wash with Low sodium HEPES-buffered saline solution (LNHBSS) (150 mM Choline Chloride, […] (Sigma), 1 mM Calcium Chloride, 5 mM Potassium Chloride, 1 mM Magnesium Chloride, 10 mM Glucose) agents diluted with LNHBSS are added to each well. (Varying concentrations of test agent may be used). The activation/radiolabel mixture contains aconitine (Sigma), and ^14C-guanidine hydrochloride (ARC).
# After loading the cells with test agent and activation/radiolabel mixture, the Scintiplates are incubated at ambient temperature. Following the incubation, the Scintplates are extensively washed with LNHBSS supplemented with guanidine (Sigma). The Scintiplates are dried and then counted using a Wallac MicroBeta TriLux (Perkin-Elmer Life Sciences). The ability of the test agent to block sodium channel activity is determined by comparing the amount of ^14C-guanidine present inside the cells expressing the different sodium channels.
# IC-50 value of a test agent for a specific sodium channel may be determined using the above general method. IC-50 may be determined using a 3,8,10,12 or 16 point curve in duplicate or triplicate with a starting concentration of 1, 5 or 10 μM diluted serially with a final concentration reaching the sub-nanomolar, nanomolar and low micromolar ranges. Typically the mid-point concentration of test agent is set at 1 μM, and sequential concentrations of half dilutions greater or smaller are applied (e.g. 0.5 μM; […] and 0.25 μM; 10 μM and 0.125 μM; 20 μM etc.). The IC-50 curve is calculated using the 4 Parameter Logistic Model or Sigmoidal Dose-Response Model formula (fit=(A+((B−A)/(1+((C/x)̂D)))).
# [2] = tested on: CHO-K1; format: cell-based, Chinese Hamster
# [3] = tested on: L6 (rat myoblast cell); format: cell-based
# [4] = tested on: SK-N-BE2C; format: cell-based, human
# [5] = tested on: PC12 (rat pheochromocytoma); format: cell-based
structure (smiles),measurement,setting,value
"COc1nc2ccccn2c(=O)c1-c1ccc(NC2CCN(C(=O)OC(C)(C)C)C2)cc1 (centres unmarked) [Example 3.19, tert-butyl 3-{[4-(2-methoxy-4-oxo-4H-pyrido[1,2-a]pyrimidin-3-yl)phenyl]amino}pyrrolidine-1-carboxylate]",IC50,[1],≥ 10 µM
same,melting point,,102 to 104 °C
"CCCCc1nc2ccccn2c(=O)c1-c1ccc(N[C@@H]2CCN(C(=O)OC(C)(C)C)C2)cc1C [Example 3.10, (R)-tert-butyl 3-{[4-(2-butyl-4-oxo-4H-pyrido[1,2-a]pyrimidin-3-yl)-3-methylphenyl]amino}pyrrolidine-1-carboxylate]",IC50,[1],≥ 10 µM
same,melting point,,162 to 168 °C
"NC1=N[C@H](O)[C@H]2[C@H]3O[C@]4(O)O[C@@H]([C@@H](O)[C@@]2(N1)[C@@H]4O)[C@]3(O)CO [TTX, tetrodotoxin]",block of [14C] Guanidine influx,[2],Guanidine influx was completely
same,block of [14C] Guanidine influx,[3],partially blocked by TTX (Nav1.5
same,block of [14C] Guanidine influx,[4],TTX partially blocked influx
same,block of [14C] Guanidine influx,[5],Guanidine influx was completely
"CCCCc1nc2ccccn2c(=O)c1-c1ccc(NC(=O)[C@@H]2CCCN2C(=O)OC(C)(C)C)cc1 [Example 5, (S)-tert-butyl 2-{[4-(2-butyl-4-oxo-4H-pyrido[1,2-a]pyrimidin-3-yl)phenyl]carbamoyl}-pyrrolidine-1-carboxylate]",IC50,[1],≥ 10 µM
same,melting point,,179 to 187 °C
"CC(C)c1nc2ccccn2c(=O)c1-c1ccc(Cl)cc1 [Example 1.5, 3-(4-chlorophenyl)-2-(1-methylethyl)-4H-pyrido[1,2-a]pyrimidin-4-one]",IC50,[1],≥ 10 µM
same,melting point,,98 to 100 °C
"CCCCc1nc2ccccn2c(=O)c1-c1ccc(N[C@@H]2CCNC2)cc1.Cl [Example 8, (R)-2-butyl-3-(4-(pyrrolidin-3-ylamino)phenyl)-4H-pyrido[1,2-a]pyrimidin-4-one hydrochloride]",IC50,[1],1 to 10 µM
same,melting point,,171 to 174 °C
"CCCCc1nc2ccccn2c(=O)c1-c1ccc(NC(=O)[C@@H]2CCCN2)cc1.Cl [Example 18, (S)—N-[4-(2-butyl-4-oxo-4H-pyrido[1,2-a]pyrimidin-3-yl)phenyl]prolinamide hydrochloride]",IC50,[1],≥ 10 µM
same,melting point,,179 to 187 °C
"CC(C)Nc1nc2ccccn2c(=O)c1-c1ccc(NC2CCN(C(=O)OC(C)(C)C)C2)cc1 (centres unmarked) [Example 3.22, tert-butyl 3-[(4-{2-[(1-methylethyl)amino]-4-oxo-4H-pyrido[1,2-a]pyrimidin-3-yl}phenyl)amino]pyrrolidine-1-carboxylate]",IC50,[1],≥ 10 µM
same,melting point,,210 to 212 °C
"CCCNc1nc2ccccn2c(=O)c1-c1ccc(NC2CCN(C(=O)OC(C)(C)C)C2)cc1 (centres unmarked) [Example 3.21, tert-butyl 3-({4-[4-oxo-2-(propylamino)-4H-pyrido[1,2-a]pyrimidin-3-yl]phenyl}amino)pyrrolidine-1-carboxylate]",IC50,[1],≥ 10 µM
same,melting point,,187 to 190 °C
"CC(C)c1nc2ccccn2c(=O)c1-c1ccc(N[C@@H]2CCN(C(=O)OC(C)(C)C)C2)cc1 (stereo in doubt) [Example 3.6, tert-butyl 3-({4-[2-(1-methylethyl)-4-oxo-4H-pyrido[1,2-a]pyrimidin-3-yl]phenyl}amino)pyrrolidine-1-carboxylate]",IC50,[1],≥ 10 µM
same,melting point,,232 to 236 °C
"COc1nc2ccccn2c(=O)c1-c1ccc(Cl)cc1 [Example 1.24, 3-(4-chlorophenyl)-2-methoxy-4H-pyrido[1,2-a]pyrimidin-4-one]",IC50,[1],≥ 10 µM
same,melting point,,149 to 151 °C
"CCCCc1nc2ccccn2c(=O)c1-c1ccc(N)cc1 [Example 1.14, 2-butyl-3-(4-aminophenyl)-4H-pyrido[1,2-a]pyrimidin-4-one]",IC50,[1],0.1 to 1 µM
same,melting point,,95 to 97 °C
